Measurements as given in the NIST ThermoML archive (doi:10.1016/j.jct.2016.12.015).
Numbers after ± are expanded uncertainties.

Experiment: molar heat capacity at constant pressure
Conditions: 101.33 kPa, Crystal, Small (less than 1 g) adiabatic calorimetry

C[C@H]1C[C@@H]2[C@H]([C@@H](O)C[C@@]3(C)[C@H]2CC[C@]3(O)C(=O)CO)[C@@]2(C)C=CC(=O)C=C12 [Methylprednisolone]
Conditions | molar heat capacity at constant pressure [J/K/mol]
5 K | 0.981 ± 0.052
6.33 K | 2.001 ± 0.091
6.49 K | 2.141 ± 0.096
6.65 K | 2.26 ± 0.1
6.78 K | 2.357 ± 0.1
6.95 K | 2.495 ± 0.11
7.1 K | 2.55 ± 0.11
7.24 K | 2.74 ± 0.12
7.49 K | 3.021 ± 0.13
7.82 K | 3.43 ± 0.15
8.13 K | 3.81 ± 0.17
8.44 K | 4.275 ± 0.18
8.75 K | 4.579 ± 0.2
9.05 K | 4.913 ± 0.21
9.36 K | 5.269 ± 0.23
9.69 K | 5.653 ± 0.24
10 K | 6.06 ± 0.26
10.01 K | 6.058 ± 0.26
10.33 K | 6.528 ± 0.28
10.66 K | 6.921 ± 0.29
11 K | 7.373 ± 0.31
11.38 K | 7.86 ± 0.33
11.77 K | 8.373 ± 0.35
12.06 K | 8.762 ± 0.37
12.88 K | 9.96 ± 0.42
14.16 K | 11.96 ± 0.5
15 K | 13.31 ± 0.55
15.44 K | 14.15 ± 0.59
16.74 K | 16.54 ± 0.68
18.07 K | 19.18 ± 0.79
19.43 K | 21.92 ± 0.9
20 K | 22.8 ± 0.94
22.43 K | 28.16 ± 0.37
25 K | 33.3 ± 0.42
25.22 K | 33.67 ± 0.42
28.44 K | 39.96 ± 0.48
30 K | 42.63 ± 0.48
31.97 K | 46.03 ± 0.52
35 K | 51.54 ± 0.58
35.53 K | 52.34 ± 0.58
39.09 K | 58.93 ± 0.65
40 K | 60.39 ± 0.67
42.67 K | 65.35 ± 0.4
45 K | 69.3 ± 0.42
46.26 K | 71.33 ± 0.43
49.86 K | 77.8 ± 0.47
50 K | 78.27 ± 0.47
53.45 K | 84.8 ± 0.5
57.05 K | 91.01 ± 0.54
60 K | 96.39 ± 0.57
60.67 K | 97.6 ± 0.57
64.3 K | 104 ± 0.6
67.91 K | 110.8 ± 0.6
70 K | 114.2 ± 0.7
71.53 K | 116.8 ± 0.7
75.17 K | 122.4 ± 0.7
78.82 K | 129.7 ± 0.7
80 K | 131.5 ± 0.8
81.9 K | 134.6 ± 0.8
82.48 K | 136 ± 0.8
86.1 K | 142.8 ± 0.8
86.12 K | 142.4 ± 0.8
89.32 K | 147.8 ± 0.8
90 K | 149.3 ± 0.8
92.91 K | 154.1 ± 0.8
96.5 K | 159.9 ± 0.9
100 K | 165.9 ± 0.9
100.08 K | 165.8 ± 0.9
103.66 K | 171.9 ± 0.9
107.23 K | 178 ± 1
110 K | 182.1 ± 1
110.81 K | 183.4 ± 1
114.37 K | 188.6 ± 1
117.93 K | 195.4 ± 1
120 K | 198.1 ± 1.1
121.48 K | 200.9 ± 1.1
125.04 K | 206.7 ± 1.1
128.59 K | 212 ± 1.1
130 K | 213.9 ± 1.1
132.14 K | 217.1 ± 1.2
135.68 K | 222.2 ± 1.2
139.22 K | 228.2 ± 1.2
140 K | 229.6 ± 1.2
142.74 K | 233.6 ± 1.2
146.27 K | 238.8 ± 1.3
149.79 K | 244.2 ± 1.3
150 K | 245 ± 1.3
153.3 K | 250 ± 1.3
156.82 K | 254.9 ± 1.3
160 K | 260.2 ± 1.4
160.33 K | 260.9 ± 1.4
163.83 K | 266.4 ± 1.4
167.33 K | 271.7 ± 1.4
170 K | 275.3 ± 1.4
170.82 K | 276.8 ± 1.4
174.31 K | 282.2 ± 1.5
177.79 K | 287.2 ± 1.5
180 K | 290.3 ± 1.5
181.26 K | 292.5 ± 1.5
184.73 K | 297.4 ± 1.5
188.19 K | 302.5 ± 1.6
190 K | 305.3 ± 1.6
191.65 K | 307.8 ± 1.6
195.06 K | 312.7 ± 1.6
198.5 K | 318.2 ± 1.6
200 K | 320.4 ± 1.7
201.93 K | 323.6 ± 1.7
205.36 K | 328.5 ± 1.7
208.8 K | 333.1 ± 1.7
210 K | 335.6 ± 1.7
212.23 K | 338.2 ± 1.7
215.66 K | 343.7 ± 1.8
219.09 K | 349.3 ± 1.8
220 K | 350.7 ± 1.8
222.53 K | 355 ± 1.8
225.95 K | 361 ± 1.9
229.38 K | 364.2 ± 1.9
230 K | 365.9 ± 1.9
232.82 K | 370.1 ± 1.9
236.24 K | 375.2 ± 1.9
239.67 K | 380.7 ± 2
240 K | 381.1 ± 2
243.1 K | 385.9 ± 2
246.53 K | 391.1 ± 2
249.92 K | 396.2 ± 2
250 K | 396.3 ± 2
253.35 K | 401.5 ± 2.1
256.77 K | 406.9 ± 2.1
260 K | 411.6 ± 2.1
260.19 K | 412 ± 2.1
263.6 K | 417.5 ± 2.1
267.02 K | 422.9 ± 2.2
270 K | 427.1 ± 2.2
270.43 K | 428.4 ± 2.2
273.84 K | 432.9 ± 2.2
277.25 K | 438.4 ± 2.2
280 K | 442.9 ± 2.3
280.64 K | 443.7 ± 2.3
284.03 K | 449 ± 2.3
287.42 K | 454 ± 2.3
290 K | 458.9 ± 2.3
290.79 K | 460.1 ± 2.3
294.15 K | 465.4 ± 2.4
297.51 K | 471.2 ± 2.4
298.15 K | 472.1 ± 2.4
300 K | 475.1 ± 2.4
300.85 K | 475.9 ± 2.4
304.09 K | 481.9 ± 2.4
307.42 K | 487.8 ± 2.5
310 K | 491.2 ± 2.5
310.76 K | 492.9 ± 2.5
314.09 K | 498.1 ± 2.5
317.42 K | 503 ± 2.5
320 K | 507 ± 2.6
320.76 K | 508 ± 2.6
324.1 K | 513.3 ± 2.6
327.44 K | 518.2 ± 2.6
330 K | 522.5 ± 2.6
330.78 K | 523.9 ± 2.7
334.13 K | 529 ± 2.7
337.48 K | 534 ± 2.7
340 K | 538.4 ± 2.7
340.82 K | 539.6 ± 2.7
344.16 K | 545.9 ± 2.8
347.5 K | 551.7 ± 2.8
350 K | 556.8 ± 2.8
350.09 K | 556.9 ± 2.8
